In patent publication US20190351012A1, “TARGETING OF INTERFERON-STIMULATED GENE EXPRESSION TO TREAT INTERFERONOPATHIES” (New York University, priority 2018, published 2019):

System: CDK9 at ISG56 and ISG15 promoters
Test: ChIP for CDK9 (P-TEFb) at ISG promoters in 2fTGH cells
Type: cell-based, human
Conditions: IFN-α 60 min in presence of TSA
Method: FIG. 4. HDAC activity is required for P-TEFb recruitment. (A) HeLa cells were either left untreated or treated with IFN-α for 1 h in presence or absence of 100 or 200 nM of the CDK9 inhibitor flavopiridol (Flay). Using primers spanning intron-exon junctions, nuclear pre-mRNA abundance for ISG54 and RPS11 were quantified using real-time RT-PCR and normalized to GAPDH mRNA. (B) 2fTGH cells were either left untreated or treated with IFN-α in the absence or presence of TSA for 60 min. ChIP assays were performed with antibodies against CDK9 and recovered ISG56 and ISG15 promoter sequences were quantified by real-time PCR relative to input and represented as percent of the input signal. (C) BT474 cells were either left untreated or treated with IFN-α in the absence or presence of TSA after exposure to Geldanamycin (Gelda) for 24 h, as indicated. mRNA for ISG56, OAS2 and c-Myc were quantified by real-time RT-PCR and normalized to GAPDH. […] ISG56 mRNA was quantified using real-time RT-PCR and normalized to GAPDH mRNA abundance (left panel). […] ISG56, Spt5 mRNA, and ISG54 pre-mRNA were quantified using real-time RT-PCR and normalized to GAPDH mRNA abundance.
To directly probe the involvement of P-TEFb in ISG expression, we assessed its recruitment to chromatin in response to IFN treatment. […]

## CC(/C=C/C(=O)NO)=C\[C@@H](C)C(=O)c1ccc(N(C)C)cc1 [TSA, Trichostatin A]
  chromatin-bound CDK9 at ISG56 and ISG15 promoters: not observed
